Measurements published in patent publication US12692262B2, “Substituted ureas as orexin receptor agonists” (Merck Sharp & Dohme LLC, priority 2020, dated 2026).

Biological target: T1, human OX2R (Homo sapiens, UniProt O43614)
T1 construct: expressed in transfected cells; host or cells: CHO (Chinese hamster ovary) cells grown under G418 selection
T1 sequence (O43614 1-444): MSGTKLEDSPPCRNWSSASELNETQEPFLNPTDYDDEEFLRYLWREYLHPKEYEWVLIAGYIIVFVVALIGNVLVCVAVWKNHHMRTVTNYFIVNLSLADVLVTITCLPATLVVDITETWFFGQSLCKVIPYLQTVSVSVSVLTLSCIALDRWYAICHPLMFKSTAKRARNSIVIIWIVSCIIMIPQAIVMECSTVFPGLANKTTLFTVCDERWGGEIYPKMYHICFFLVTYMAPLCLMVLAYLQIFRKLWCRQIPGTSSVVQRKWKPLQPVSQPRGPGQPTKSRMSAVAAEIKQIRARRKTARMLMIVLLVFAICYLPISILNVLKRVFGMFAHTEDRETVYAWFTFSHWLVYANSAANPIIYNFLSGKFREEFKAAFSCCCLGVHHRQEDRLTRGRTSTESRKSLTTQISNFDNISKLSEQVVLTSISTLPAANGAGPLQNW
Assay: IPOne (IP-1 accumulation) assay in CHO cells expressing human OX2R
Type: cell-based
Conditions: for EC50: CHO cells expressing human OX2R, IP-One assay, 2 h incubation, four parameter logistic fit, read-out: OX2R Potency, EC50; for % of maximum agonist effect (relative to Orexin A): percent effect vs mean max effect of a reference compound at 1 uM (100% activity vs Orexin A), human OX2R
Outline: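 Agonist EC50 values come from the inflection point of four-parameter logistic curves. Read-out is IP-1 accumulation detected with lysis buffer plus D2 and AB-cryptate reagents (HTRF), in CHO cells engineered to express human OX2R.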

| SMILES | EC50 [nM] | % of maximum agonist effect (relative to Orexin A) [%] | % of maximum agonist effect (relative to Orexin A) (1 µM) [%] |
| --- | --- | --- | --- |
| CCN(C(=O)N[C@@H](CCC(F)F)C(F)F)[C@@H](c1cc(-c2cn3cc(C)nc3c(OC)n2)c(OC)cn1)C(F)(F)F [Example 4-2, 1-ethyl-3-((S)-1,1,5,5-tetrafluoropentan-2-yl)-1-((S)-2,2,2-trifluoro-1-(5-methoxy-4-(8-methoxy-2-methylimidazo[1,2-a]pyrazin-6-yl)pyridin-2-yl)ethyl)urea] | 5.9 | 99.9 | – |
| CCN(C(=O)N[C@@H](CCCF)C(F)F)[C@@H](c1cc(-c2cn3ncnc3c(OC)n2)c(OC)cn1)C(F)(F)F [Example 4-3, 1-ethyl-1-((S)-2,2,2-trifluoro-1-(5-methoxy-4-(8-methoxy-[1,2,4]triazolo[1,5-a]pyrazin-6-yl)pyridin-2-yl)ethyl)-3-((S)-1,1,5-trifluoropentan-2-yl)urea] | 17.2 | 101.4 | – |
| CCN(C(=O)N[C@@H](C=C(C)C)C(F)(F)F)[C@H](C)c1cccc(-c2cn3ccnc3c(OC)n2)c1 [Example 5-2, 1-ethyl-1-((R)-1-(3-(8-methoxyimidazo[1,2-a]pyrazin-6-yl)phenyl)ethyl)-3-((S)-1,1,1-trifluoro-4-methylpent-3-en-2-yl)urea] | – | – | 99.1 |
| C#CC(NC(=O)N(CC)[C@@H](c1cc(-c2cn3ccnc3c(OC)n2)c(OC)cn1)C(F)(F)F)C(F)(F)F (stereo partly drawn) [Example 5-3, 1-ethyl-1-((S)-2,2,2-trifluoro-1-(5-methoxy-4-(8-methoxyimidazo[1,2-a]pyrazin-6-yl)pyridin-2-yl)ethyl)-3-(1,1,1-trifluorobut-3-yn-2-yl)urea] | 37.4 | 100.5 | – |
| CC[C@H](CCC(F)F)NC(=O)N(CC)[C@@H](c1cc(-c2cn3cc(C)nc3c(OC)n2)c(OC)cn1)C(F)(F)F [Example 6-1, 3-((R)-6,6-difluorohexan-3-yl)-1-ethyl-1-((S)-2,2,2-trifluoro-1-(5-methoxy-4-(8-methoxy-2-methylimidazo[1,2-a]pyrazin-6-yl)pyridin-2-yl)ethyl)urea] | 22.6 | 101.0 | – |
| CC[C@H](CC(F)(F)F)NC(=O)N(CC)C(c1cc(-c2cn3ccnc3c(OC)n2)c(OC)cn1)C(F)(F)F (stereo partly drawn) [Example 6-2, 1-ethyl-1-(2,2,2-trifluoro-1-(5-methoxy-4-(8-methoxyimidazo[1,2-a]pyrazin-6-yl)pyridin-2-yl)ethyl)-3-((R)-1,1,1-trifluoropentan-3-yl)urea] | 8.1 | 100.1 | – |
| CCN(C(=O)NC(CC(F)(F)F)C1CC1)C(c1cc(-c2cn3ccnc3c(OC)n2)c(OC)cn1)C(F)(F)F (centres unmarked) [Example 6-3, 3-(1-cyclopropyl-3,3,3-trifluoropropyl)-1-ethyl-1-(2,2,2-trifluoro-1-(5-methoxy-4-(8-methoxyimidazo[1,2-a]pyrazin-6-yl)pyridin-2-yl)ethyl)urea] | 13.6 | 100.2 | – |
| CCN(C(=O)NC(CCCF)C1CC1)[C@@H](c1cc(-c2cn3cc(C)nc3c(OC)n2)c(OC)cn1)C(F)(F)F (stereo partly drawn) [Example 6-4, 3-(1-cyclopropyl-4-fluorobutyl)-1-ethyl-1-((S)-2,2,2-trifluoro-1-(5-methoxy-4-(8-methoxy-2-methylimidazo[1,2-a]pyrazin-6-yl)pyridin-2-yl)ethyl)urea] | 16 | 100.3 | – |
| CCC(/C=C/C(F)(F)F)NC(=O)N(CC)[C@@H](c1cc(-c2cn3cc(C)nc3c(OC)n2)c(OC)cn1)C(F)(F)F (stereo partly drawn) [Example 6-5, 1-ethyl-1-((S)-2,2,2-trifluoro-1-(5-methoxy-4-(8-methoxy-2-methylimidazo[1,2-a]pyrazin-6-yl)pyridin-2-yl)ethyl)-3-((E)-6,6,6-trifluorohex-4-en-3-yl)urea] | 18.9 | 100.0 | – |
